Test results reported in patent US20260207602A1, “EGFR INHIBITORS” (Blueprint Medicines Corporation, priority 2022, published 2026).
pIC50: −log10 of the molar value. Where two headings read alike, the source gives them in different places.

What was measured:
EGFR L858R = target: T1, EGFR L858R (Homo sapiens, UniProt P00533, L858R); test: Biochemical EGFR inhibition assay (Caliper mobility shift), EGFR L858R; conditions: read-out: Enz EGFR L858R IC50
T1 construct: purchased SignalChem E10-122BG
T1 sequence (P00533 25-1210 L858R): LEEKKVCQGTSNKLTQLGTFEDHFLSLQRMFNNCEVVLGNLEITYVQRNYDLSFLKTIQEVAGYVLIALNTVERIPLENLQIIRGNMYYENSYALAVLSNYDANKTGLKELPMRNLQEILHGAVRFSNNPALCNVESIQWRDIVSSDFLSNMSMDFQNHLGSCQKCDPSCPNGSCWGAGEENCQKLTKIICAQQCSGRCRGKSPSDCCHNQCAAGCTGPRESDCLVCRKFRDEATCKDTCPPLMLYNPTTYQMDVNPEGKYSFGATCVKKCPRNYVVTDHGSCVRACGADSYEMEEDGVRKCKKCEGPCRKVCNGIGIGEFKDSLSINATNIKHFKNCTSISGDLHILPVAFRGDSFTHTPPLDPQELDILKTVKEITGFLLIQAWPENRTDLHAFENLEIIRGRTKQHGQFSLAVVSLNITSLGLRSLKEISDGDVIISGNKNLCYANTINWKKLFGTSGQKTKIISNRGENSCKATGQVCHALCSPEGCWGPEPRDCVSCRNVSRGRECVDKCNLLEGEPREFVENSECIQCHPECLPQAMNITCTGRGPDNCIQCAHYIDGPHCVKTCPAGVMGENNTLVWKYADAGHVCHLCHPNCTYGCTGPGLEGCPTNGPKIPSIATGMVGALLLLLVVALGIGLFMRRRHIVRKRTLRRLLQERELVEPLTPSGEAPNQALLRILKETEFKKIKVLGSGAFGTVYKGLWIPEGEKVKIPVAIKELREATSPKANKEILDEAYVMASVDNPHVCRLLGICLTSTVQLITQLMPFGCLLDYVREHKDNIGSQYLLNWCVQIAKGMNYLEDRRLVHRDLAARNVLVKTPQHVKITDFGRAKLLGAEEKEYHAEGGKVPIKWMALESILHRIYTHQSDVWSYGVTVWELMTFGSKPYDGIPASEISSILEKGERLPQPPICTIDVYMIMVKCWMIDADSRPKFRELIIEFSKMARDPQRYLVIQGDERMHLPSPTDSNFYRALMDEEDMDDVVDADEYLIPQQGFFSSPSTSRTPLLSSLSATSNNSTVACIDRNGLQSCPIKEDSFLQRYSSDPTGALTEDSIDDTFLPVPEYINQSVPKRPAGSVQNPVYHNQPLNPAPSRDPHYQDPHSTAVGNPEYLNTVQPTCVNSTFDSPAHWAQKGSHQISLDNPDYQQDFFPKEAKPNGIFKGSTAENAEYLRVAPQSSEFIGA
Experimental: (§1) Inhibitory effects of the compounds of the disclosure were measured in biochemical assays that measure the phosphorylation activity of EGFR enzyme phosphorylates 2.5 micromolar 5-FAM-[…]-CONH2 peptide substrate (ProfilerPro Kinase Peptide Substrate 22, PerkinElmer, Part #760366) in the presence of adenosine-5′-triphosphate (ATP) and varying concentrations of the test compound in 100 mM 2-[4-(2-hydroxyethyl)piperazin-1-yl]ethanesulfonic acid (HEPES), pH 7.5, 10 mM MgCl2, 0.015% Brij-35, 1 mM dithiothreitol (DTT), 1.0% dimehylsulfoxide (DMSO). Assays were performed at 1.0 mM ATP or at ATP Km of the EGFR enzymes. Reactions proceeded until between 10% to 20% total peptides were phosphorylated at room temperature (25° C.) and were terminated with 35 mM 2,2′,2″,2′″-(ethane-1,2-diyldinitrilo)tetraacetic acid (EDTA). Product was detected using the Caliper mobility shift detection method where the phosphorylated peptide (product) and substrate were electrophoretically separated and measured. Percent activity was plotted against log concentration of compound and points to generate an apparent IC50. The following enzyme forms of • EGFR were examples that were used in these assays: • EGFR WT (SignalChem, E10-112G) • EGFR L858R (SignalChem, E10-122BG) • EGFR (d746-750) (SignalChem, E10-122JG) • EGFR L858R C797S (SignalChem, E10-122ZG) • EGFR (d746-750) C797S (SignalChem, E10-122TG)

EGFR (d746-750) = target: T2, EGFR (d746-750) (Homo sapiens, UniProt P00533, DEL746-750); test: Biochemical EGFR inhibition assay (Caliper mobility shift), EGFR (d746-750); conditions: read-out: Enz EGFR Exon 19-del IC50
T2 construct: purchased SignalChem E10-122JG
T2 sequence (P00533 with tags, fused parts or gaps DEL746-750 limits assumed): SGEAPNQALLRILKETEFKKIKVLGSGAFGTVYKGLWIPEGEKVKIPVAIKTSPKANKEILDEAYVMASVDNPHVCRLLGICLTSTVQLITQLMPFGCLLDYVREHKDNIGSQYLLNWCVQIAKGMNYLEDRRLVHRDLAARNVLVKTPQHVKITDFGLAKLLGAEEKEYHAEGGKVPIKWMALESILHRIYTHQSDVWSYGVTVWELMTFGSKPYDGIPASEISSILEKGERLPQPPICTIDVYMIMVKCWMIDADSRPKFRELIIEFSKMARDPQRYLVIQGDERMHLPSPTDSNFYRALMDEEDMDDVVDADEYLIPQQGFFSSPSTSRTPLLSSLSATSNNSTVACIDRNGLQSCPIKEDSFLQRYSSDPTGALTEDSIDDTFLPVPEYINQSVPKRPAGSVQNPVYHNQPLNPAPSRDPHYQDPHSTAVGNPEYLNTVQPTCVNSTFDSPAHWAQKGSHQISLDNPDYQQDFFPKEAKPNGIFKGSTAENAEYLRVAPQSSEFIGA
Experimental: as §1

[1] = target: intracellular phosphorylation of EGFR (Tyr1068) in PC-9 cells (Homo sapiens, UniProt P00533, DEL746-750); test: PC-9 pEGFR AlphaLISA assay; type: cell-based; conditions: 4 hours incubation, read-out: Phos EGFR PC9 IC50
Sequence of intracellular phosphorylation of EGFR (Tyr1068) in PC-9 cells (P00533 with tags, fused parts or gaps DEL746-750): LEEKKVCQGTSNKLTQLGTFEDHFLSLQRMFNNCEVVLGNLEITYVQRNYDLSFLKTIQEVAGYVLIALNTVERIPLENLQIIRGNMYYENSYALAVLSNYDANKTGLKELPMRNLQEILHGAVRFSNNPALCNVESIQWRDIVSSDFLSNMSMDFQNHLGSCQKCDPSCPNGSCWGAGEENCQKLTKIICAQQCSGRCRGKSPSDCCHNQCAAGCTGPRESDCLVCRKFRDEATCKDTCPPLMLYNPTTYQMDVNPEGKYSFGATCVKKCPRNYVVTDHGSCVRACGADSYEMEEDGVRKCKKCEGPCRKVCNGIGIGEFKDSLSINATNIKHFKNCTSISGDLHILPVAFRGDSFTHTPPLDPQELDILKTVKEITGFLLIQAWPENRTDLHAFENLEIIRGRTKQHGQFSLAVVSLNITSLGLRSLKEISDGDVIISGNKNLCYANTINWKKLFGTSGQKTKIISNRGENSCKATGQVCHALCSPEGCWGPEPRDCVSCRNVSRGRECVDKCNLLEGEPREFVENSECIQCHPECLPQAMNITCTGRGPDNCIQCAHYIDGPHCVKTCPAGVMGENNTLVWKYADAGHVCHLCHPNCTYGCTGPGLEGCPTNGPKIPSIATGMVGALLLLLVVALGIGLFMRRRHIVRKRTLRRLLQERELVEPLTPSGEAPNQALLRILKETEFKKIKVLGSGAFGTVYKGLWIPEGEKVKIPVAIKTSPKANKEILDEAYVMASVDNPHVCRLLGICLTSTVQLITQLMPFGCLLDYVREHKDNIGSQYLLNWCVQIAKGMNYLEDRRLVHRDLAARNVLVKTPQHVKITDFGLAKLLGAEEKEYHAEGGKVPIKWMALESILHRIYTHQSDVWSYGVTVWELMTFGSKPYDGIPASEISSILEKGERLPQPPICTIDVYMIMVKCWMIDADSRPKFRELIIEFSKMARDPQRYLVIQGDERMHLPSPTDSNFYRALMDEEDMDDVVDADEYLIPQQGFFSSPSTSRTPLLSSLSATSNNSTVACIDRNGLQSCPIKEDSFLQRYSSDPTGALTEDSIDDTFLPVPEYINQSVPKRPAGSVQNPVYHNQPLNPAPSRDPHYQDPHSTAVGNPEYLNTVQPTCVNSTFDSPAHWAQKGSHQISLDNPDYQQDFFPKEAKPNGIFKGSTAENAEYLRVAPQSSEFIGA
Experimental: PC-9/A431 pEGFR AlphaLISA Assays
Inhibitory effects of compounds were evaluated in cellular assays that measure level of intracellular phosphorylation of EGFR in PC-9 (ECACC, #90071810, Milipore/Sigma) and A431 cell lines (ATCC, CRL-1555) using AlphaLISA sureFire ultra p-EGFR (Tyr1068) assay kit (PerkinElmer, ALSU-PEGFR-A50K). PC-9 cells were seeded at 3.125×10^5 cells/ml in 40 μL phenol-free DMEM supplemented with 10% FBS per well of a 384 well plate (Corning, 3764), while A431 were seeded at […] in 40 μL in phenol-free DMEM with 0.5% FBS. Cells were allowed to adhere overnight at 37° C./5% CO2. On the next day, compounds were transferred at 4-fold, 10-point serial dilution from compound source plate to cell plates using liquid handler Echo550 and were incubated at 37° C./5% CO2 for 4 hours. A431 cells were stimulated prior harvesting for 10 min with EGF at final concentration of 30 ng/ml in the incubator. Medium was removed from the plates and cells were lysed with 10 μL of 1× AlphaLISA lysis buffer (supplemented with 1× protease/phosphatase inhibitor cocktail) followed by shaking at 600 rpm for 30 minutes at room temperature. Lysates were transferred to Optiplate (Apricot designs) and 5 ul of 1× acceptor bead mix (prepared just before use) was added to each well followed by incubation at room temperature for 1.5-2 h in dark. Then 5 μL of freshly-made donor bead mix is added to each well under subdued lighting or green filters, was mixed well on the shaker and the plate was sealed and left for an overnight incubation at room temperature in dark. On the next day, the plate was read the Envision using standard AlphaLisa settings. Percent of pEGFR inhibition was plotted against log concentration of compounds to generate IC50 values.

[2] = biochemical Caliper mobility shift assay, EGFR L858R enzyme
[3] = biochemical Caliper mobility shift assay, EGFR Exon 19-del enzyme

`Cn1cc(-c2cc3ncnc(Nc4ccc5ncsc5c4F)c3cc2OC2CCOCC2)cn1` [Example 262, 7-fluoro-N-(7-(1-methyl-1H-pyrazol-4-yl)-6-((tetrahydro-2H-pyran-4-yl)oxy)quinazolin-4-yl)benzo[d]thiazol-6-amine] showed a pIC50 (EGFR L858R; [2]) of no less than 8.00, a pIC50 (EGFR (d746-750); [3]) of no less than 8.00 and a pIC50 [1] of no less than 8.00.
`COc1cc2ncnc(Nc3ccc4ncsc4c3)c2cc1-c1cnn(C2CCN(C)CC2)c1` [Example 163, N-(7-methoxy-6-(1-(1-methylpiperidin-4-yl)-1H-pyrazol-4-yl)quinazolin-4-yl)benzo[d]thiazol-6-amine] showed a pIC50 (EGFR L858R; [2]) of no less than 8.00, a pIC50 (EGFR (d746-750); [3]) of no less than 8.00 and a pIC50 [1] of no less than 8.00.
For `Cn1cc(-c2cc(OCC(=O)N3CCCCC3)c3c(Nc4ccc5ncsc5c4)ncnc3c2)cn1` [Example 272, 2-((4-(benzo[d]thiazol-6-ylamino)-7-(1-methyl-1H-pyrazol-4-yl)quinazolin-5-yl)oxy)-1-(piperidin-1-yl)ethan-1-one], the pIC50 (EGFR L858R; [2]) was no less than 8.00, the pIC50 (EGFR (d746-750); [3]) was no less than 8.00 and the pIC50 [1] was no less than 8.00.
Work on `COc1nn(C)cc1-c1cc(O[C@H]2CCNC[C@@H]2F)c2c(Nc3ccc4ncsc4c3)ncnc2c1` (single isomer, unassigned) [Example 360] yielded a pIC50 (EGFR L858R; [2]) of no less than 8.00, a pIC50 (EGFR (d746-750); [3]) of no less than 8.00 and a pIC50 [1] of no less than 8.00.
`C[C@H](CO)Oc1cc(N2CCN(C)CC2)cc2ncnc(Nc3ccc4ncsc4c3F)c12` (single isomer, unassigned) [Example 296] gave a pIC50 (EGFR L858R; [2]) of no less than 8.00, a pIC50 (EGFR (d746-750); [3]) of no less than 8.00 and a pIC50 [1] of no less than 8.00.
With `Cn1cc(-c2cc(OCC3(C)COC3)c3c(Nc4ccc5ncsc5c4)ncnc3c2)cn1` [Example 49, N-(7-(1-methyl-1H-pyrazol-4-yl)-5-((3-methyloxetan-3-yl)methoxy)quinazolin-4-yl)benzo[d]thiazol-6-amine] the pIC50 (EGFR L858R; [2]) was no less than 8.00, the pIC50 (EGFR (d746-750); [3]) was no less than 8.00 and the pIC50 [1] was 7.30 to 8.00.
Work on `COc1nn(C)cc1-c1cc(O[C@H]2CN(C)C[C@@H]2F)c2c(Nc3ccc4ncsc4c3)ncnc2c1` (single isomer, unassigned) [Example 378] yielded a pIC50 (EGFR L858R; [2]) of no less than 8.00, a pIC50 (EGFR (d746-750); [3]) of no less than 8.00 and a pIC50 [1] of no less than 8.00.
`CN1CCC[C@H](Oc2cc(C#CCN3CCOCC3)cc3ncnc(Nc4ccc5ncsc5c4)c23)C1` [Example A25, N-(1,3-benzothiazol-6-yl)-5-{[(3S)-1-methylpiperidin-3-yl]oxy}-7-[3-(morpholin-4-yl)prop-1-yn-1-yl]quinazolin-4-amine] was tested, and the pIC50 (EGFR L858R) was greater than 8.00, the pIC50 (EGFR (d746-750)) was greater than 8.00 and the pIC50 [1] was 7.30 to 8.00.
For `C[C@@H](Oc1c(F)c(-c2cnn(C)c2)cc2ncnc(Nc3ccc4ncsc4c3F)c12)C1COC1` (single isomer, unassigned) [Example A27], the pIC50 (EGFR L858R; [2]) was no less than 8.00, the pIC50 (EGFR (d746-750); [3]) was no less than 8.00 and the pIC50 [1] was 7.30 to 8.00.
Molecule `C[C@@H](Oc1cc(-c2cn(C)n(C(F)F)c2=O)cc2ncnc(Nc3ccc4ncsc4c3)c12)C1COC1` (single isomer, unassigned) [Example 174] has a pIC50 (EGFR L858R; [2]) of no less than 8.00, a pIC50 (EGFR (d746-750); [3]) of no less than 8.00 and a pIC50 [1] of no less than 8.00.
In the case of `C[C@@H](O)[C@@H](C)Oc1cc(-c2cnn(C)c2)cc2ncnc(Nc3ccc4ncsc4c3)c12` [Example 184, (2R,3R)-3-((4-(benzo[d]thiazol-6-ylamino)-7-(1-methyl-1H-pyrazol-4-yl)quinazolin-5-yl)oxy)butan-2-ol], the pIC50 (EGFR L858R; [2]) was no less than 8.00, the pIC50 (EGFR (d746-750); [3]) was no less than 8.00 and the pIC50 [1] was no less than 8.00.
With `COCCN1CCC(Oc2cc(-c3cn(C)nc3OC)cc3ncnc(Nc4ccc5ncsc5c4)c23)CC1` [Example 305, N-(7-(3-methoxy-1-methyl-1H-pyrazol-4-yl)-5-((1-(2-methoxyethyl)piperidin-4-yl)oxy)quinazolin-4-yl)benzo[d]thiazol-6-amine] the pIC50 (EGFR L858R; [2]) was no less than 8.00, the pIC50 (EGFR (d746-750); [3]) was no less than 8.00 and the pIC50 [1] was no less than 8.00.
`Cn1cc(-c2cc(OC3CCCOC3)c3c(Nc4ccc5ncsc5c4)ncnc3c2)cn1` (stereo not drawn) [Example 414, N-(7-(1-methyl-1H-pyrazol-4-yl)-5-((tetrahydro-2H-pyran-3-yl)oxy)quinazolin-4-yl)benzo[d]thiazol-6-amine] gave a pIC50 (EGFR L858R; [2]) of no less than 8.00, a pIC50 (EGFR (d746-750); [3]) of no less than 8.00 and a pIC50 [1] of no less than 8.00.
